Test results as given in US10487068B2, “Pyridazine derivatives as RORc modulators” (Genentech, Inc., priority 2015, dated 2019).

Each molecule was assayed against T1, RORc ligand binding domain (Homo sapiens, UniProt P51449) (assay: In Vitro RORc Ligand Binding Assay). Conditions: RORc IC50, radioligand 25-[3H]hydroxycholesterol 6 nM; 0.6 ug/mL RORc receptor; 3 h at 25° C.
T1 sequence (P51449 269-508 limits assumed): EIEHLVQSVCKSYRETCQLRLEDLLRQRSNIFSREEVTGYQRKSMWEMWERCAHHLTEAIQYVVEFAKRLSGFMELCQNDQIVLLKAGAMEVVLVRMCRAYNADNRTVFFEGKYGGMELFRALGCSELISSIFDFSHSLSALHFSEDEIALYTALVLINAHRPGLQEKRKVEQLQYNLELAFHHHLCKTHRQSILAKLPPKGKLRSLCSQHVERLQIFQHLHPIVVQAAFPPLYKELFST
Work on CC1(C)[C@H]2CC[C@]1(c1nccc(C(=O)NCCO)n1)c1nnc(-c3c(F)cccc3F)cc12 [Example 95, 2-((5R,8R)-3-(2,6-difluorophenyl)-9,9-dimethyl-5,6,7,8-tetrahydro-5,8-methanocinnolin-8-yl)-N-(2-hydroxyethyl)pyrimidine-4-carboxamide] yielded an IC50 of 117 nM.
For CC1(C)[C@H]2CC[C@]1(c1cccc(C(=O)Nc3c[nH]c(=O)cn3)n1)c1nnc(-c3c(F)cccc3F)cc12 [Example 96, 6-((5R,8S)-3-(2,6-difluorophenyl)-9,9-dimethyl-5,6,7,8-tetrahydro-5,8-methanocinnolin-8-yl)-N-(5-oxo-4,5-dihydropyrazin-2-yl)picolinamide], the IC50 was 34.3 nM.
Molecule CC1(C)[C@H]2CC[C@]1(c1nccc(NCCO)n1)c1nnc(-c3c(F)cccc3F)cc12 [Example 97, 2-((2-((5R,8R)-3-(2,6-difluorophenyl)-9,9-dimethyl-5,6,7,8-tetrahydro-5,8-methanocinnolin-8-yl)pyrimidin-4-yl)amino)ethanol] has an IC50 of 98.3 nM.
In the case of CC1(C)[C@H]2CC[C@]1(c1ccnc(NCCO)n1)c1nnc(-c3c(F)cccc3F)cc12 [Example 98], the IC50 is reported as 15.4 nM.
In the case of CC1(C)[C@@H]2CC[C@@]1(c1cccc(C(=O)NCCO)n1)c1nnc(-c3c(F)cccc3F)cc12 [Example 99, 6-((5S,8R)-3-(2,6-difluorophenyl)-9,9-dimethyl-5,6,7,8-tetrahydro-5,8-methanocinnolin-8-yl)-N-(2-hydroxyethyl)picolinamide], the IC50 is reported as 40.9 nM.
Molecule C[C@H](O)CNC(=O)c1cccc([C@]23CC[C@H](c4cc(-c5c(F)cccc5F)nnc42)C3(C)C)n1 [Example 100, 6-((5S,8R)-3-(2,6-difluorophenyl)-9,9-dimethyl-5,6,7,8-tetrahydro-5,8-methanocinnolin-8-yl)-N-((S)-2-hydroxypropyl)picolinamide] has an IC50 of 41.3 nM.
CC(=O)Nc1cccc([C@@]23CC[C@@H](c4cc(-c5c(F)cccc5F)nnc42)C3(C)C)n1 [Example 101, N-(6-((5R,8S)-3-(2,6-difluorophenyl)-9,9-dimethyl-5,6,7,8-tetrahydro-5,8-methanocinnolin-8-yl)pyridin-2-yl)acetamide] was tested, and the IC50 was 21.9 nM.
For Cc1nnc(-c2cccc([C@@]34CC[C@@H](c5cc(-c6c(F)cccc6F)nnc53)C4(C)C)n2)o1 [Example 102, 2-(6-((5R,8S)-3-(2,6-difluorophenyl)-9,9-dimethyl-5,6,7,8-tetrahydro-5,8-methanocinnolin-8-yl)pyridin-2-yl)-5-methyl-1,3,4-oxadiazole], the IC50 was 21.6 nM.
CC1(C)[C@H]2CC[C@]1(c1cncc(NC(=O)C3COC3)n1)c1nnc(-c3c(F)cccc3F)cc12 [Example 103, N-(6-((5R,8S)-3-(2,6-difluorophenyl)-9,9-dimethyl-5,6,7,8-tetrahydro-5,8-methanocinnolin-8-yl)pyrazin-2-yl)oxetane-3-carboxamide] showed an IC50 of 29.1 nM.
Work on CC1(C)[C@H]2CC[C@]1(c1cncc(-c3nnc[nH]3)n1)c1nnc(-c3c(F)cccc3F)cc12 [Example 104] yielded an IC50 of 25.9 nM.
Molecule Cc1nnc(-c2cncc([C@@]34CC[C@@H](c5cc(-c6c(F)cccc6F)nnc53)C4(C)C)n2)[nH]1 [Example 105] has an IC50 of 30.9 nM.
Work on CC1(C)[C@H]2CC[C@]1(c1cncc(C(=O)NCC3(O)COC3)n1)c1nnc(-c3c(F)cccc3F)cc12 [Example 106, 6-((5R,8S)-3-(2,6-difluorophenyl)-9,9-dimethyl-5,6,7,8-tetrahydro-5,8-methanocinnolin-8-yl)-N-((3-hydroxyoxetan-3-yl)methyl)pyrazine-2-carboxamide] yielded an IC50 of 31.1 nM.
Molecule CC1(C)[C@H]2CC[C@]1(c1cncc(C(=O)NC[C@@H](O)CO)n1)c1nnc(-c3c(F)cccc3F)cc12 [Example 107, 6-((5R,8S)-3-(2,6-difluorophenyl)-9,9-dimethyl-5,6,7,8-tetrahydro-5,8-methanocinnolin-8-yl)-N-((R)-2,3-dihydroxypropyl)pyrazine-2-carboxamide] has an IC50 of 69.5 nM.
For CC1(C)[C@H]2CC[C@]1(c1cncc(C(=O)NC[C@H](O)CO)n1)c1nnc(-c3c(F)cccc3F)cc12 [Example 108, 6-((5R,8S)-3-(2,6-difluorophenyl)-9,9-dimethyl-5,6,7,8-tetrahydro-5,8-methanocinnolin-8-yl)-N-((S)-2,3-dihydroxypropyl)pyrazine-2-carboxamide], the IC50 was 47.5 nM.
In the case of C[C@@H](O)CNC(=O)c1cncc([C@]23CC[C@H](c4cc(-c5c(F)cccc5F)nnc42)C3(C)C)n1 [Example 109, 6-((5S,8R)-3-(2,6-difluorophenyl)-9,9-dimethyl-5,6,7,8-tetrahydro-5,8-methanocinnolin-8-yl)-N-((R)-2-hydroxypropyl)pyrazine-2-carboxamide], the IC50 is reported as 19.8 nM.
Molecule CC1(C)[C@H]2CC[C@]1(c1cncc(C(=O)NCCS(C)(=O)=O)n1)c1nnc(-c3c(F)cccc3F)cc12 [Example 110, 6-((5R,8S)-3-(2,6-difluorophenyl)-9.9-dimethyl-5,6,7,8-tetrahydro-5,8-methanocinnolin-8-yl)-N-(2-(methylsulfonyl)ethyl)pyrazine-2-carboxamide] has an IC50 of 51.4 nM.
With CC1(C)[C@H]2CC[C@]1(c1ccnc(NS(C)(=O)=O)n1)c1nnc(-c3c(F)cccc3F)cc12 [Example 111] the IC50 was 41.4 nM.
Work on CC1(C)[C@H]2CC[C@]1(c1cccc(NC(=O)CO)n1)c1nnc(-c3c(F)cccc3F)cc12 [Example 112, N-(6-((5R,8S)-3-(2,6-difluorophenyl)-9,9-dimethyl-5,6,7,8-tetrahydro-5,8-methanocinnolin-8-yl)pyridin-2-yl)-2-hydroxyacetamide] yielded an IC50 of 13.7 nM.
Work on CC1(C)[C@H]2CC[C@]1(c1ccnc(C(N)=O)n1)c1nnc(-c3c(F)cccc3F)cc12 [Example 113] yielded an IC50 of 27.6 nM.
C[C@H](O)CNC(=O)c1nccc([C@@]23CC[C@@H](c4cc(-c5c(F)cccc5F)nnc42)C3(C)C)n1 [Example 114] showed an IC50 of 38.8 nM.
C[C@@H](O)CNC(=O)c1nccc([C@@]23CC[C@@H](c4cc(-c5c(F)cccc5F)nnc42)C3(C)C)n1 [Example 115] was tested, and the IC50 was 63.2 nM.
Work on CC1(C)[C@H]2CC[C@]1(c1cccc(CNC(=O)CO)n1)c1nnc(-c3c(F)cccc3F)cc12 [Example 116, N-((6-((5R,8S)-3-(2,6-difluorophenyl)-9,9-dimethyl-5,6,7,8-tetrahydro-5,8-methanocinnolin-8-yl)pyridin-2-yl)methyl)-2-hydroxyacetamide] yielded an IC50 of 15.2 nM.
Cc1coc(-c2cncc([C@@]34CC[C@@H](c5cc(-c6c(F)cccc6F)nnc53)C4(C)C)n2)n1 [Example 117, 2-(6-((5R,8S)-3-(2,6-difluorophenyl)-9,9-dimethyl-5,6,7,8-tetrahydro-5,8-methanocinnolin-8-yl)pyrazin-2-yl)-4-methyloxazole] gave an IC50 of 7.6 nM.
Cc1ncc(-c2cncc([C@@]34CC[C@@H](c5cc(-c6c(F)cccc6F)nnc53)C4(C)C)n2)o1 [Example 118, 5-(6-((5R,8S)-3-(2,6-difluorophenyl)-9,9-dimethyl-5,6,7,8-tetrahydro-5,8-methanocinnolin-8-yl)pyrazin-2-yl)-2-methyloxazole] gave an IC50 of 13 nM.
CC1(C)[C@H]2CC[C@]1(c1cncc(C(=O)NC(CO)CO)n1)c1nnc(-c3c(F)cccc3F)cc12 [Example 119, 6-((5R,8S)-3-(2,6-difluorophenyl)-9,9-dimethyl-5,6,7,8-tetrahydro-5,8-methanocinnolin-8-yl)-N-(1,3-dihydroxypropan-2-yl)pyrazine-2-carboxamide] gave an IC50 of 58.9 nM.
Work on Cc1nc(-c2cncc([C@@]34CC[C@@H](c5cc(-c6c(F)cccc6F)nnc53)C4(C)C)n2)co1 [Example 120, 4-(6-((5R,8S)-3-(2,6-difluorophenyl)-9,9-dimethyl-5,6,7,8-tetrahydro-5,8-methanocinnolin-8-yl)pyrazin-2-yl)-2-methyloxazole] yielded an IC50 of 8.6 nM.
CC1(C)[C@H]2CC[C@]1(c1cncc(-c3nnc(CO)[nH]3)n1)c1nnc(-c3c(F)cccc3F)cc12 [Example 121, (5-(6-((5R,8S)-3-(2,6-difluorophenyl)-9,9-dimethyl-5,6,7,8-tetrahydro-5,8-methanocinnolin-8-yl)pyrazin-2-yl)-4H-1,2,4-triazol-3-yl)methanol] showed an IC50 of 27.2 nM.
CC1(C)[C@H]2CC[C@]1(c1ccnc(NC(CO)CO)n1)c1nnc(-c3c(F)cccc3F)cc12 [Example 122] was tested, and the IC50 was 38.6 nM.
In the case of CC1(C)[C@H]2CC[C@]1(c1cncc(-c3n[nH]c(=O)[nH]3)n1)c1nnc(-c3c(F)cccc3F)cc12 [Example 123, 3-(6-((5R,8S)-3-(2,6-difluorophenyl)-9,9-dimethyl-5,6,7,8-tetrahydro-5,8-methanocinnolin-8-yl)pyrazin-2-yl)-1H-1,2,4-triazol-5(4H)-one], the IC50 is reported as 32.5 nM.
Molecule CC1(C)[C@H]2CC[C@]1(c1cncc(C(=O)NCC3(O)CC3)n1)c1nnc(-c3c(F)cccc3F)cc12 [Example 124, 6-((5R,8S)-3-(2,6-difluorophenyl)-9,9-dimethyl-5,6,7,8-tetrahydro-5,8-methanocinnolin-8-yl)-N-((1-hydroxycyclopropyl)methyl)pyrazine-2-carboxamide] has an IC50 of 50.8 nM.
For CC1(C)[C@H]2CC[C@]1(c1cncc(-c3noc(=O)[nH]3)n1)c1nnc(-c3c(F)cccc3F)cc12 [Example 125, 3-(6-((5R,8S)-3-(2,6-difluorophenyl)-9,9-dimethyl-5,6,7,8-tetrahydro-5,8-methanocinnolin-8-yl)pyrazin-2-yl)-1,2,4-oxadiazol-5(4H)-one], the IC50 was 20.9 nM.
C[C@H](O)CNC(=O)c1cncc([C@@]23CC[C@@H](c4cc(-c5ccccc5F)nnc42)C3(C)C)n1 [Example 126, 6-((5R,8S)-3-(2-fluorophenyl)-9,9-dimethyl-5,6,7,8-tetrahydro-5,8-methanocinnolin-8-yl)-N-((S)-2-hydroxypropyl)pyrazine-2-carboxamide] was tested, and the IC50 was 45.6 nM.
